Assay results as given in patent US20040033276A1, “Coating composition for cereals having a preventive or treating effect on diabetes and cereals coated thereby” (priority 2002, published 2004).

System: α-glucosidase
Test: Inhibition of α-glucosidase by extracts of herb medicine
Assay type: biochemical
Conditions: 0.1 ml extract
Method: Inhibitory activities of various herb extracts on the activity of α-glucosidase, which catalyzes the digestion of a polysaccharide to monosaccharides, were examined as follows. Extracts of various herb medicines listed in Table 4 below were prepared in accordance with the method of Reference Example 2. Added to 0.27 ml of 2 mM substrate (p-nitrophenyl-α-D-glucopyranoside, Sigma, U.S.A.) were 0.03 ml of α-glucosidase(Sigma, U.S.A.), 0.2 ml of 20 mM phosphate buffer (pH 7.0) and 0.1 ml of respective extracts obtained above. The resulting mixture was incubated in a 37° C. thermostat(Vision Science, Korea) for 30 minutes, and 0.5 ml of 1 M glycine-NaOH (pH 9.0) was added thereto to stop the reaction. […] Negative control was treated with distilled water instead of the herb extract, and positive control, with acarbose(Glucobay™, Bayer) and DNJ (Deoxynojirimycin, Dep. Seruculture & Entomology, NIAST), which are representative α-glucosidase inhibitors. Activities of the respective extracts for inhibiting α-glucosidase were calculated by the following equation and the result is shown in Table 4. Inhibition (%)=(1−Absorbance of a sample/Absorbance of the negative control)×100

- Inhibition (%) (relative to negative control): 80.79%
- Absorbance (405 nm, 37° C., 30 minutes): 0.7641 ± 0.0021
SMILES: OC[C@H]1NC[C@H](O)[C@@H](O)[C@@H]1O [DNJ, Deoxynojirimycin]
